Laboratory results as given in US11583572B2, “Encapsulation of ultra-stable insulin analogues with polymer melts” (CASE WESTERN RESERVE UNIVERSITY, priority 2015, dated 2023).
Bridges are numbered along the chain shown (N, C = ends). Where no end group is shown, it is not given here.

Assays:
[1] = target: A isoform of the insulin receptor (Homo sapiens, UniProt P06213)
[2] = Elution of protein from PLGA polymer cylinders in phosphate-buffered saline (Bradford assay calibrated by ELISA); format: physicochemical; conditions: 5% PEG, PBS pH 7.4, 37° C.
Protocol: FIG. 4 is a graph showing elution of ultra-stable single-chain analogue (SCI) from PLGA polymer (50-50%) in phosphate-buffered saline (pH 7.4 and 37° C.). Horizontal axis denotes soaking time. Vertical axis denotes nanograms of insulin analogue (dark gray triangles) or relative Bradford-active material in control polymers containing hen egg white lysozyme (light gray squares) or no protein (dark gray diamonds). The latter represents background signal in the Bradford assay due to non-protein material. Horizontal plateau at days 10-15 represents no further elution of protein from the polymers. Samples were made with 5% PEG (mean molecular mass 8 kDa) to optimize the near-linear rate of SCI elution between 1-10 days. Immediate burst release of a portion of the material is not shown.
Elution of insulin analogue protein from a polymer melt in phosphate buffered saline (PBS) at pH 7.4 was also examined. Test cylindrical polymers were prepared with 50%-50% PLGA containing 25% weight/weight of a single-chain insulin (SCI) analogue stabilized by a fourth disulfide bridge between residues B4 and A10. […]
The cumulative amounts of protein released are also provided below in Table 1. In this table the micrograms of insulin corresponding to the Bradford assay was verified by ELISA whereas the readings for lysozyme are uncalibrated by an independent assay.

A isoform of the insulin receptor, sequence (P06213 28-746 isoform P06213-2 limits assumed): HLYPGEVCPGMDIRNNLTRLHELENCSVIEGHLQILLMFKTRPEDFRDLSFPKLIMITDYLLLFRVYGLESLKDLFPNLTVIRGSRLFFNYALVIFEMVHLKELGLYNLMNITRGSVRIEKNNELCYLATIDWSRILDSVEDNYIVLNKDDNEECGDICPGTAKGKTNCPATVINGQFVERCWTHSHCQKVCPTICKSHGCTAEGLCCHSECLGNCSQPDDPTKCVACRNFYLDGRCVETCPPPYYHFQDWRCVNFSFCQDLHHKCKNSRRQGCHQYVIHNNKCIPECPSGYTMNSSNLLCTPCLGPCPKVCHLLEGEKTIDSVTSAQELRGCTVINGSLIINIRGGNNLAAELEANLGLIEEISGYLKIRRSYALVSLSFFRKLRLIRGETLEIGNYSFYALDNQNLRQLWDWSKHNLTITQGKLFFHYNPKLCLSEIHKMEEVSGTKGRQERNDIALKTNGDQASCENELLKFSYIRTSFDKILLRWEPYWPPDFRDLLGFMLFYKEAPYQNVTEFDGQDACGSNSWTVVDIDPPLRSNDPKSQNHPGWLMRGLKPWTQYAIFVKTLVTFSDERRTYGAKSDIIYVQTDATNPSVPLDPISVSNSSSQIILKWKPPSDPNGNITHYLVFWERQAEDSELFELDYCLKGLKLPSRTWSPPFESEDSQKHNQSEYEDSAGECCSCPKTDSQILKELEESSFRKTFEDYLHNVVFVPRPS
A isoform of the insulin receptor, sequence (P06213 763-1382 partner limits assumed): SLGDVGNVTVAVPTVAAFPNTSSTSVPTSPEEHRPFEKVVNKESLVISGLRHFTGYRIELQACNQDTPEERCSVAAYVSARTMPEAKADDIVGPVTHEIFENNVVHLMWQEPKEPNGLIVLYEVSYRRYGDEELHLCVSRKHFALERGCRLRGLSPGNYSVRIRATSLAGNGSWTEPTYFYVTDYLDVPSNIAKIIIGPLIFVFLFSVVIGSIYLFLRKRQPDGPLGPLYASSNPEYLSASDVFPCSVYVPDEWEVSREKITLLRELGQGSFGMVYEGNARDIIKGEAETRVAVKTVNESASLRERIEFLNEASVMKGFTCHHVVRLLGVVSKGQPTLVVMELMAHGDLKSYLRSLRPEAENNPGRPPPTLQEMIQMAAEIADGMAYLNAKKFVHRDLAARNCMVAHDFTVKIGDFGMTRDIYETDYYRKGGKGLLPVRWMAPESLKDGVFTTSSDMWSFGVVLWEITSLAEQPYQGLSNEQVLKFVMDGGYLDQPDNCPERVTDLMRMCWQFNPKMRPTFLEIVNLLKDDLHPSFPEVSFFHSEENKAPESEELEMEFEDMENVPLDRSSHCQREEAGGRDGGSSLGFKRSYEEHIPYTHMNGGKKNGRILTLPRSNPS

| Substance | affinity for the A isoform of the insulin receptor relative to human insulin [1] | protein release from PLGA polymer during days 10-15 [2] |
| --- | --- | --- |
| FVNCHLCGSHLVEALYLVCGERGFFYTDPTEEGPRRGIVEQCCHSCCSLEQLENYCN (disulfide 4-46, 7-43, 19-56, 42-47) [4SS 81-04] | 120±20% |  |
| hen egg-white lysozyme: control protein in analogous co-polymer instead of an insulin analogue |  | no further release |
